Test results as given in US4125501A, “Phosphites of sugar alcohols and polymers stabilized therewith” (Hoechst Aktiengesellschaft, priority 1976, dated 1978).

What was measured:
[1] = stability to hydrolysis (boiling in deionized water, titration of liberated phosphorous acid); assay type: physicochemical; conditions: for degree of hydrolysis after 60 minutes: 1 h
Experimental: The stability to hydrolysis was tested according to the process disclosed in DT-OS 2,144,181, pages 7/8. 5.0 g each of the respective phosphite were boiled for 20 and 60 minutes in 100 ml of deionized water. The mixture was then allowed to cool, it was filtered to remove residues, if any, and in the filtrate the liberated phosphorous acid was titrated with 0.1N KOH against bromophenol blue.
In the following table is indicated the degree of hydrolysis determined under the specified conditions as quotient of the actual consumption of KOH and the theoretically possible consumption with a complete hydrolysis.

[2] = dynamic heat stability (rolling stability) in polyvinyl chloride; conditions: 180° C, 20 rpm, 0.5 part phosphite per 100 parts PVC
Experimental: Each time 100 parts of a mass polyvinyl chloride having a K value of 60 were intimately mixed with
0.2 part of 2-phenyl-indole,
3.0 parts of epoxidized soybean oil
0.3 part of stearyl stearate
0.5 part of glycerol monostearate and
0.5 part each of respective phosphite of the invention.
To measure the dynamic heat stability (rolling stability) the mixtures were rolled on a two roll mill at 180° C. and with 20 revolutions per minute. At intervals of 10 minutes samples were taken from the rough sheet and the color of the samples was compared with the colors of a proper color chart. Rolling was continued until the rough sheet had turned black.
In the color chart used the individual notes have the following meaning: […]

[3] = acute toxicity in male albino mice, per os; assay type: in vivo
Experimental: To test the acute toxicities of the compounds of the invention male albino mice were fed as prescribed in the book "Grundlagen der experimentellen Arzneimittelforschung" by Leopold Ther, addition 1965.
The phosphite to be tested was administered per os, suspended in aqueous methyl cellulose (Tylose^R) solution, to groups of 5 test animals each, the doses being 1,000, 2,000, and 5,000 mg/kg of body weight.

degree of hydrolysis after 20 minutes [1]	degree of hydrolysis after 60 minutes [1]	Molecule	also measured
1.0 % of theory	2.0 % of theory	Di-(β-hydroxy-eicosyl)-mono-thiododecyl-mannityl-triphosphite [Example 5]	
1.5 % of theory	3.6 % of theory	Di-(β-hydroxy-triacontyl)-mono-thiododecyl-sorbityl-triphosphite [Example 4]	

Second part, the molecule before the results:

Molecule	degree of hydrolysis after 20 minutes [1]	degree of hydrolysis after 60 minutes [1]	also measured
Tri-(β-hydroxy-triacontyl)-sorbityl-triphosphite [Example 1]	1.8 % of theory	2.4 % of theory	
Di-(β-hydroxy-triacontyl)-mannityl-diphosphite [Example 3]	21.0 % of theory		
CCCCCCCCCCCCCCCCCCOP1OCC2(CO1)COP(OCCCCCCCCCCCCCCCCCC)OC2 (stereo not drawn) [distearyl-pentaerythrityl-diphosphite]			dynamic (rolling) stability, discoloration of rough sheet after a rolling time of 40' ([2]; 40'): 4; dynamic (rolling) stability, discoloration of rough sheet after a rolling time of 50' ([2]; 50'): 5
Di-(β-hydroxy-triacontyl)-sorbityl-diphosphite [Example 2]	22.5 % of theory		toxicity assessment ([3]; acute): practically innocuous; deaths at the highest dosage ([3]; per os, highest dose 5,000 mg/kg of body weight): no animal died
